{"source": "patent US7205333B2", "about": "(priority 2000, dated 2007)", "key": {"[1]": {"tested_on": "B/Harbin/7/95", "test": "Inhibition of cytopathic effect (CPE) of influenza virus replication in MDCK cells", "conditions": "for IC50 / EC50: Influenza B virus, MDCK; for EC50: read-out: EC50 on Influenza B/Harbin/7/95"}, "[2]": {"tested_on": "A/Sydney/5/97", "test": "Inhibition of cytopathic effect (CPE) of influenza virus replication in MDCK cells", "conditions": "for IC50 / EC50: Influenza A virus, MDCK; for EC50: read-out: EC50 on Influenza A/Sydney/5/97"}, "[3]": {"tested_on": "Influenza A/Victoria/3/75", "set-up": "species or system mice", "conditions": "mouse, in vivo"}, "[4]": {"tested_on": "A/Victoria/3/75", "test": "Inhibition of cytopathic effect (CPE) of influenza virus replication in MDCK cells"}, "[5]": {"tested_on": "Influenza B/Victoria/1/87", "test": "Influenza plaque assay in MDCK cell monolayers", "conditions": "Influenza B virus, 96 h, read-out: EC50 on Influenza B/Victoria/1/87"}, "[6]": {"tested_on": "Influenza A/Singapore/1/57", "assay_type": "in vivo", "set-up": "Effectiveness: unit: %", "conditions": "A/Singapore/1/57, lungs 1 day post infection; for Effectiveness / Mean Virus Titre (logTCID50/ml): mice"}, "[7]": {"test": "Long duration of action: level of compound in lung tissue after intra-tracheal dosing", "assay_type": "in vivo, Rodents", "conditions": "0.4 mg/kg intra-tracheal, LC-MS/MS, in parallel with Zanamivir", "procedure": "Rodents are anaesthetised and dosed with compound of interest by the intra-tracheal route at a dose volume of 0.8 ml/kg. The rodent is then held in the vertical position until full recovery is achieved. At different time points, for example, 2, 8, 24 and 48 hours post-dose, levels of compound in the lung tissue are assessed by analytical methods. Any analytical method suitable for detection of this type of compound may-be used. The time at which levels of compound fall below the sensitivity of the analytical techniques identified will determine the residency time of the compound in lung tissue.\nThe multimeric Compounds No 3, 4 and 20 of the invention were tested in parallel with Zanamivir [Compound (A)] using a dose of 0.4 mg/kg for each compound and assessing the level of compound in the lung tissue after 48 and 168 hours, using LC-MS/MS."}, "[8]": {"tested_on": "Influenza A/Victoria/3/75", "test": "Influenza plaque assay in MDCK cell monolayers", "conditions": "Influenza A virus, 96 h, read-out: EC50 on Influenza A/Victoria/3/75"}, "[9]": {"tested_on": "Influenza A/Victoria/3/75", "set-up": "species or system mice", "conditions": "mouse, in vivo", "remark": "listed apart in the source"}, "[10]": {"tested_on": "Influenza A/WSN/33", "test": "Influenza plaque assay in MDCK cell monolayers", "conditions": "Influenza A virus, 96 h, read-out: EC50 on Influenza A/WSN/33"}, "[11]": {"conditions": "CPE results, same protocol as b341, MDCK cells"}}, "note": "Where two headings read alike, the source gives them in different places."}
{"smiles": "CC(=O)N[C@H]1[C@H]([C@H](OC(=O)NCCCCCCNC(=O)COc2c3cc(C(C)(C)C)cc2Cc2cc(C(C)(C)C)cc(c2OCC(=O)NCCCCCCNC(=O)O[C@@H]([C@@H]2OC(C(=O)O)=C[C@H](NC(=N)N)[C@H]2NC(C)=O)[C@H](O)CO)Cc2cc(C(C)(C)C)cc(c2OCC(=O)NCCCCCCNC(=O)O[C@@H]([C@@H]2OC(C(=O)O)=C[C@H](NC(=N)N)[C@H]2NC(C)=O)[C@H](O)CO)Cc2cc(C(C)(C)C)cc(c2OCC(=O)NCCCCCCNC(=O)O[C@@H]([C@@H]2OC(C(=O)O)=C[C@H](NC(=N)N)[C@H]2NC(C)=O)[C@H](O)CO)C3)[C@H](O)CO)OC(C(=O)O)=C[C@@H]1NC(=N)N", "note": "[Compound 23]", "values": [{"measurement": "EC50 on Influenza B/Harbin/7/95", "setting": "[1]; [11]", "value": 9.263}, {"measurement": "EC50 on Influenza A/Sydney/5/97", "setting": "[2]; [11]", "value": 27.714}, {"measurement": "% Effectiveness", "setting": "[3]", "value": 78.2, "unit": "%"}, {"measurement": "Mean Virus Titre (logTCID50/ml)", "setting": "[3]", "value": 4.7, "unit": "logTCID50/ml"}, {"measurement": "Number of virus free mice", "setting": "[3]", "value": 0}]}
{"smiles": "CC(=O)N[C@H]1[C@H]([C@H](OC(=O)NCCCCCCN)[C@H](O)CO)OC(C(=O)O)=C[C@@H]1NC(=N)N", "note": "[Compound (2) TFA2, 5-acetamido-7-(6-aminohexylcarbamoyloxy)-4-guanidino-2,3,4,5-tetradeoxy-D-glycero-D-galacto-non-2-enopyranosonic acid]", "values": [{"measurement": "IC50", "setting": "[1]; read-out: IC50 nM", "value": 259, "unit": "nM"}, {"measurement": "IC50", "setting": "[1]; read-out: IC50 ng/ml", "value": 182, "unit": "ng/mL"}, {"measurement": "IC50", "setting": "[2]; read-out: IC50 nM", "value": 588, "unit": "nM"}, {"measurement": "IC50", "setting": "[2]; read-out: IC50 ng/ml", "value": 413, "unit": "ng/mL"}, {"measurement": "IC50", "setting": "[4]; read-out: IC50 nM", "value": 52.7, "unit": "nM"}, {"measurement": "IC50", "setting": "[4]; read-out: IC50 ng/ml", "value": 37, "unit": "ng/mL"}]}
{"smiles": "CC(=O)N[C@H]1[C@H]([C@H](OC(=O)NCCCCCCNC(=O)CN(CCN(CC(=O)NCCCCCCNC(=O)O[C@@H]([C@@H]2OC(C(=O)O)=C[C@H](NC(=N)N)[C@H]2NC(C)=O)[C@H](O)CO)CC(=O)NCCCCCCNC(=O)O[C@@H]([C@@H]2OC(C(=O)O)=C[C@H](NC(=N)N)[C@H]2NC(C)=O)[C@H](O)CO)CC(=O)O)[C@H](O)CO)OC(C(=O)O)=C[C@@H]1NC(=N)N.O=C(O)C(F)(F)F", "note": "[Compound 14, (19R,20R)-19-((2R,3R,4S)-3-(acetylamino)-4-{[amino (imino)methyl]amino}-6-carboxy-3,4-dihydro-2H-pyran-2-yl)-3,6-bis[2-({6-[({[(1R,2R)-1-((2R,3R,4S)-3-(acetylamino)-4-{[amino(imino)methyl]amino}-6-carboxy-3,4-dihydro-2H-pyran-2-yl)-2,3-dihydroxypropyl]oxy}carbonyl)amino]hexyl}amino)-2-oxoethyl]-20,21-dihydroxy-8,17-dioxo-18-oxa-3,6,9,16-tetraazahenicosan-1-oic acid tris(trifluoroacetate)]", "values": [{"measurement": "EC50", "setting": "[5]", "value": 6.3, "unit": "ng/mL"}]}
{"smiles": "CC(=O)N[C@H]1[C@H]([C@H](OC(=O)NCCCCCCNC(=O)CN(CCN(CC(=O)NCCCCCCNC(=O)O[C@H](C(O)CO)[C@@H]2OC(C(=O)O)=C[C@H](NC(=N)N)[C@H]2NC(C)=O)CC(=O)NCCCCCCNC(=O)O[C@H](C(O)CO)[C@@H]2OC(C(=O)O)=C[C@H](NC(=N)N)[C@H]2NC(C)=O)CC(=O)NCCCCCCNC(=O)O[C@H](C(O)CO)[C@@H]2OC(C(=O)O)=C[C@H](NC(=N)N)[C@H]2NC(C)=O)C(O)CO)OC(C(=O)O)=C[C@@H]1NC(=N)N", "note": "(some centres unmarked) [Compound 3]", "values": [{"measurement": "Number of virus free mice", "setting": "[6]; 0.01 mg/kg", "value": 0}, {"measurement": "Effectiveness", "setting": "[6]; 0.01 mg/kg", "value": 68.38}, {"measurement": "Mean Virus Titre (logTCID50/ml)", "setting": "[6]; 0.01 mg/kg", "value": 5.55, "unit": "logTCID50/ml"}, {"measurement": "Number of virus free mice", "setting": "[6]; 0.1 mg/kg", "value": 0}, {"measurement": "Effectiveness", "setting": "[6]; 0.1 mg/kg", "value": 95.53}, {"measurement": "Mean Virus Titre (logTCID50/ml)", "setting": "[6]; 0.1 mg/kg", "value": 4.70, "unit": "logTCID50/ml"}, {"measurement": "Number of virus free mice", "setting": "[6]; 1 mg/kg", "value": 1}, {"measurement": "Effectiveness", "setting": "[6]; 1 mg/kg", "value": 99.47}, {"measurement": "Mean Virus Titre (logTCID50/ml)", "setting": "[6]; 1 mg/kg", "value": 3.78, "unit": "logTCID50/ml"}, {"measurement": "level of compound in the lung tissue after 48 and 168 hours", "setting": "[7]", "value": "retained in the lung at much higher concentrations than the monomer Zanamivir (A)"}, {"measurement": "EC50", "setting": "[8]", "value": 0.1, "unit": "ng/mL"}, {"measurement": "EC50", "setting": "[5]", "value": 0.3, "unit": "ng/mL"}, {"measurement": "% Effectiveness", "setting": "[3]", "value": 59, "unit": "%"}, {"measurement": "Mean Virus Titre (logTCID50/ml)", "setting": "[3]", "value": 4.0, "unit": "logTCID50/ml"}, {"measurement": "Number of virus free mice", "setting": "[3]", "value": 4}]}
{"smiles": "CC(=O)N[C@H]1[C@H]([C@H](O)[C@H](O)CO)OC(C(=O)O)=C[C@@H]1NC(=N)N", "note": "[Zanamivir, 4-guanidino-2-deoxy-2,3-dehydro-N-acetylneuraminic acid, reference compound]", "values": [{"measurement": "Effectiveness", "setting": "[9]", "value": 81.76}, {"measurement": "Number of virus free mice", "setting": "[9]", "value": 0}, {"measurement": "EC50", "setting": "[1]", "value": 14.2, "unit": "ng/mL"}, {"measurement": "IC50", "setting": "[1]; read-out: IC50 nM", "value": 31.2, "unit": "nM"}, {"measurement": "IC50", "setting": "[1]; read-out: IC50 ng/ml", "value": 10.4, "unit": "ng/mL"}, {"measurement": "Number of virus free mice", "setting": "[6]; 0.2 mg/kg", "value": 0}, {"measurement": "Effectiveness", "setting": "[6]; 0.2 mg/kg", "value": 33.17}, {"measurement": "Mean Virus Titre (logTCID50/ml)", "setting": "[6]; 0.2 mg/kg", "value": 5.60, "unit": "logTCID50/ml"}, {"measurement": "Number of virus free mice", "setting": "[6]; 1 mg/kg", "value": 0}, {"measurement": "Effectiveness", "setting": "[6]; 1 mg/kg", "value": 74.88}, {"measurement": "Mean Virus Titre (logTCID50/ml)", "setting": "[6]; 1 mg/kg", "value": 5.18, "unit": "logTCID50/ml"}, {"measurement": "Number of virus free mice", "setting": "[6]; 5 mg/kg", "value": 1}, {"measurement": "Effectiveness", "setting": "[6]; 5 mg/kg", "value": 93.69}, {"measurement": "Mean Virus Titre (logTCID50/ml)", "setting": "[6]; 5 mg/kg", "value": 4.58, "unit": "logTCID50/ml"}, {"measurement": "EC50", "setting": "[10]", "value": 22.7, "unit": "ng/mL"}, {"measurement": "EC50", "setting": "[2]", "value": 32.7, "unit": "ng/mL"}, {"measurement": "IC50", "setting": "[2]; read-out: IC50 nM", "value": 77.7, "unit": "nM"}, {"measurement": "IC50", "setting": "[2]; read-out: IC50 ng/ml", "value": 25.8, "unit": "ng/mL"}, {"measurement": "EC50", "setting": "[8]", "value": 3.5, "unit": "ng/mL"}, {"measurement": "IC50", "setting": "[4]; read-out: IC50 nM", "value": 73.9, "unit": "nM"}, {"measurement": "IC50", "setting": "[4]; read-out: IC50 ng/ml", "value": 24.6, "unit": "ng/mL"}, {"measurement": "EC50", "setting": "[5]", "value": 16, "unit": "ng/mL"}, {"measurement": "% Effectiveness", "setting": "[3]", "value": "−43.4", "unit": "%"}, {"measurement": "Number of virus free mice", "setting": "[3]", "value": 0}]}
{"smiles": "O=Cc1cc(C=O)cc(C=O)c1", "note": "[Compound 29]", "values": [{"measurement": "EC50", "setting": "[1]", "value": 0.882, "unit": "ng/mL"}, {"measurement": "EC50", "setting": "[2]", "value": 0.089, "unit": "ng/mL"}]}
